Assay results: paper PMC9691366, “Modulating the pharmacokinetic profile of Actinium-225-labeled macropa-derived radioconjugates by dual targeting of PSMA and albumin” (Theranostics, 2022)
Marks after values point to notes of the source that are not given here.

Columns and labels:
[1] = assay type: physicochemical; conditions: pH 7.4
Method: 1-Octanol/water distribution coefficients (log D) were determined by applying the shake-flask-method. 20 µL of the reaction mixture were poured into 580 µL of 5xPBS (pH 7.4). Afterwards, 600 µL of 1-octanol was added and the two-phase-system was vigorously stirred for 5 min. Then, the samples were centrifuged, the phases were separated and the count rates were measured using ISOMED2160 sodium iodide crystal detector (at least 4 h after phase separation due to initial decay products).

PSMA = PSMA (Homo sapiens, UniProt Q04609); assay: Saturation binding studies on PSMA-positive LNCaP cells; conditions: 95% confidence interval in brackets; for Kd: on ice
Chain of PSMA (Q04609 whole entry): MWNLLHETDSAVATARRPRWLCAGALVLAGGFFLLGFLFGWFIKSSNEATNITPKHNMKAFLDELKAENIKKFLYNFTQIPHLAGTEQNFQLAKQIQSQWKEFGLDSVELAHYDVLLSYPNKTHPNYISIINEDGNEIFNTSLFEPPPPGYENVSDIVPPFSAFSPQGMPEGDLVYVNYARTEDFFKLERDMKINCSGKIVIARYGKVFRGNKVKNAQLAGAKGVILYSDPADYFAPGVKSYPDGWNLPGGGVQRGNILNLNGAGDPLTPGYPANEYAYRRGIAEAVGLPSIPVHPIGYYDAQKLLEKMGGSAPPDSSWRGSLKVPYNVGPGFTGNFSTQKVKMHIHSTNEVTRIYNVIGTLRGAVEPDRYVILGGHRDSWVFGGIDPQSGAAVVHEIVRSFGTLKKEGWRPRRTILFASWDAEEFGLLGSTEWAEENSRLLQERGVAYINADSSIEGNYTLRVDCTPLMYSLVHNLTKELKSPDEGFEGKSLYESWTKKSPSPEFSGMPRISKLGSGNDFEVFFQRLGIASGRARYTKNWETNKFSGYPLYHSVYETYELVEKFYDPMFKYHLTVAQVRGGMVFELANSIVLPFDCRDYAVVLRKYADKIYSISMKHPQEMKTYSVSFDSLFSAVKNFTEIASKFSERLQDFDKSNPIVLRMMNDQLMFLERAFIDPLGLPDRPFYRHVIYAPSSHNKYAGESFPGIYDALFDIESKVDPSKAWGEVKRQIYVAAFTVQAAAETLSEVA
Method: The cell binding behavior of the ^225Ac-labeled, 4-(p-iodophenyl)butyrate-containing PSMA radioconjugates [^225Ac]Ac-mcp-M-alb-PSMA and [^225Ac]Ac-mcp-D-alb-PSMA was analyzed in saturation binding studies using PSMA-positive LNCaP cells.
Figure 2 Saturation binding curves for (A) [^225Ac]Ac-mcp-M-alb-PSMA and (B) [^225Ac]Ac-mcp-D-alb-PSMA. Nonspecific binding was determined in the presence of 500 µM unlabeled PSMA-617. Specific binding was calculated as the difference between total and nonspecific binding (n = 3 for each data point).
Saturation binding studies to determine the equilibrium dissociation constants (KD) and the maximum binding capacities (Bmax) were performed as described elsewhere. In short, 30000 LNCaP cells were seeded in 48-well microplates (Greiner Bio-One GmbH, Frickenhausen, Germany) and cultivated for 48 h to allow cell adhesion and growth. During the experiment, cells were kept on ice and all reagents were added ice-cold. The cell culture medium was replaced by PBS (200 µL/well) and the microplates were preincubated for 30 min at 4 °C. The ^225Ac-radioconjugates were added to the wells in a volume of 200 µL at different concentrations (15 pM to 500 nM). The nonspecific binding was assessed in parallel by blocking the LNCaP cells with a 1000-fold excess of unlabeled PSMA-617. After incubation of the microplates for 90 min on ice, the cells were washed three times with ice-cold PBS. The cells were lysed in 0.1 M NaOH containing 1% (w/v) sodium dodecyl sulfate. The activity of cell lysates was measured using an automatic gamma counter (Hidex Deutschland Vertrieb GmbH, Mainz, Germany).

| Compound | logD [1] | Bmax (PSMA) | Kd (PSMA) [µM] |
| --- | --- | --- | --- |
| O=C(O)CC[C@H](NC(=O)N[C@@H](CCCCNC(=O)[C@H](Cc1ccc2ccccc2c1)NC(=O)[C@H]1CC[C@H](CNC(=O)[C@H](CCCCn2cc(COc3cc(CN4CCOCCOCCN(Cc5cc(OCc6cn(CCCC[C@H](NC(=O)[C@H](CCC(=O)O)NC(=O)CCCc7ccc(I)cc7)C(=O)NC[C@H]7CC[C@H](C(=O)N[C@@H](Cc8ccc9ccccc9c8)C(=O)NCCCC[C@H](NC(=O)N[C@@H](CCC(=O)O)C(=O)O)C(=O)O)CC7)nn6)cc(C(=O)O)n5)CCOCCOCC4)nc(C(=O)O)c3)nn2)NC(=O)[C@H](CCC(=O)O)NC(=O)CCCc2ccc(I)cc2)CC1)C(=O)O)C(=O)O [[^225Ac]Ac-mcp-D-alb-PSMA, metal not drawn] | -1.7 | 1.96 (1.89 to 2.04)^# pmol/mg of protein | 0.0116 |
| O=C(O)CC[C@H](NC(=O)N[C@@H](CCCCNC(=O)[C@H](Cc1ccc2ccccc2c1)NC(=O)[C@H]1CC[C@H](CNC(=O)[C@H](CCCCn2cc(COc3cc(CN4CCOCCOCCN(Cc5cccc(C(=O)O)n5)CCOCCOCC4)nc(C(=O)O)c3)nn2)NC(=O)[C@H](CCC(=O)O)NC(=O)CCCc2ccc(I)cc2)CC1)C(=O)O)C(=O)O [[^225Ac]Ac-mcp-M-alb-PSMA, metal not drawn] | -2.4 | 0.46 (0.43 to 0.49)^# pmol/mg of protein | 0.0234 |
